Experimental data: patent US20240398981A1, “NOVEL NANOPARTICLES OF ANTIRETROVIRAL DRUGS, THEIR PREPARATION AND THEIR USE FOR THE TREATMENT OF VIRAL INFECTIONS” (CENTRE NATIONAL DE LA RECHERCHE SCIENTIFIQUE, priority 2018, published 2024)

Experiments:
HIV-1BaL = assay: Inhibition of HIV-1 infection in monocyte-derived macrophages; type: cell-based; details: six days of culture, p24 in supernatants, dose-dependent
Experimental: (§1) FIG. 3 represents the inhibition of HIV-1 replication in AZT-NP-treated macrophages. Monocyte-derived macrophages were infected with CCR5-tropic HIV-1Ba-L for 3 h. After several washes, increasing concentrations of AZT derivatives were added to infected macrophages for 6 days of culture. The level of virus replication was monitored in culture supernatants by the p24 antigen capture ELISA. The infection inhibition is expressed as percentage of the average of three independent experiments (A). The frequency of infected cells was determined by flow cytometry after a costaining of macrophages with mAbs anti-CD206 (a marker of macrophages) and mAbs anti-p24 which target intracellular HIV-1 (B). Addition of AZT derivatives was followed by the increase of the size of macrophages as assessed by the Forward-Scattered light parameter (FSC) in flow cytometry (C). […] Using flow cytometry, the expression of the two HIV-1 coreceptors CCR5 (E) and CXCR4 (F) was determined at the surface of AZT derivatives-treated macrophages.
After 6 days of activation or differentiation, cells were washed twice and seeded into 96-well culture plates ([…]). […] The level of virus replication was monitored by HIV-1 p24 antigen ELISA.
Following six days of infection, the frequency of HIV-1-infected cells was determined by flow cytometry to detect intracellular HIV-1 p24 molecule. […]

CCR5 = assay: Surface expression of HIV-1 coreceptor on treated macrophages (flow cytometry); type: cell-based, human
Experimental: as §1
Following six days of infection, the frequency of HIV-1-infected cells was determined by flow cytometry to detect intracellular HIV-1 p24 molecule. […] Stained cells were immediately acquired on a FACScalibur (Becton Dickinson) and analyzed with FlowJo software.

HIV-1 = details: DCs infected, then treated with increasing concentrations, T cells added, 6 days
Experimental: The question of the impact of NP on HIV-1 transmission from DCs to autologous T cells was addressed. DCs were first infected with HIV-1, then incubated with increasing concentrations of AZT derivatives before T cells were added.
To assess the transmission of HIV-1 from DCs to autologous T-cells, DCs were incubated into 96-well culture plates (1×10^5 cells/well) and infected with HIV-1 (1 ng p24 antigen) for 3 h at 37° C. in a 5% CO2 atmosphere. Following four washes, DCs were shortly incubated with increasing concentrations of indicated molecules or AZT (2 μM), and autologous stimulated T cells were added onto HIV-exposed DCs at DC: T-cell ratio of 1:5. Cells were cultured for 6 days. Each sample was performed in triplicate. Culture supernatants were harvested every 3 days and fresh medium with compounds was added. Supernatants were inactivated with 1% Triton X-100 and frozen at −20° C. Viral production by T lymphocytes was evaluated at the sixth day of the co-culture by measurement of p24 antigen in supernatants using capture ELISA.

[1] = test system: J774A.1 mouse macrophages; assay: [3H]-AZT-TP cellular uptake; type: cell-based; details: J774A.1 cells, up to 8 hour exposure
Experimental: Nanoparticles containing [methyl-^3H]-AZT-TP were prepared and purified as described above then diluted 1:10 in cell culture medium (in order to maintain cell viability above 80% as determined by MTT tests), so to have 70 nCi/well. A control solution of AZT-TP at the same final radioactivity concentration was used for comparison.
Cells were recovered from the culture flasks, counted and seeded in 6-well plates, at a surface density of 800,000 cells/well for J774A.1 and 160,000 for THP-1 using 2 mL medium per well. After 24 h incubation, the medium was withdrawn and 2 mL of AZT-TP nanoparticles or free AZT-TP were added in each well. Nanoparticles and AZT-TP were incubated with cells for 2 and 8 hours, after which the uptake was stopped by removing the cell culture medium. The cells were washed twice with PBS (Lonza) to remove loosely bound compounds and then lysed with 1 mL Solvable (Perkin-Elmer, France). The radioactivity of the supernatant medium, the washing supernatants and the cell lysate were counted. The uptake kinetics of nanoparticle AZT-TP was studied for 2 and 8 hours and compared to that of free AZT-TP.

Row | SMILES | production of HIV-1 by macrophages (HIV-1BaL) | expression of HIV-1 coreceptor CCR5 at macrophage surface (CCR5) | production of HIV-1 after transmission from DCs to autologous T cells (HIV-1) | AZT-TP uptake [1]
1 | Cc1cn([C@H]2C[C@H](N=[N+]=[N-])[C@@H](CO)O2)c(=O)[nH]c1=O [AZT, zidovudine] | inhibited | did not interfere | inhibited | –
2 | Cc1cn([C@H]2C[C@H](N=[N+]=[N-])[C@@H](COP(=O)(O)OP(=O)(O)OP(=O)(O)O)O2)c(=O)[nH]c1=O [AZT-TP] | inhibited | did not interfere | inhibited | around 3 nmol per million cells
